In US20120035265A1, “COMPOSITIONS, METHODS, AND DEVICES FOR THE TREATMENT OF DYSMENORRHEA” (MediciNova, Inc., priority 2010, published 2012):
Where a name gives a salt, the structure may show the parent alone. Values belong to the compound of their own block, whether it stands above or below them.

How the values were obtained:
[1] = system: uterine muscle isolated from pregnant rats; test: PG F2α-induced contraction of uterine muscle isolated from pregnant rats; type: cell-based, rat; conditions: contraction induced with 5 μg/mL of PG F2α, mean ± standard error of 10 samples
Procedure: (§1) After SD-strain rats on Day 17 of pregnancy were exsanguinated to death, the uterus was isolated to prepare up to 8 myometrial strips (about 4 mm×10 mm) per animal in the direction of the longitudinal muscle while avoiding the adhesion to the placenta. Each strip was suspended in an organ bath containing 10 mL of a modified Locke-Ringer solution at […] (aerated with 95% O2+5% CO2 gas) with a load of about 1.0 g. After the suspended sample became stable for static tension, 5 μg/mL of PG F2α or 1 mU/mL of oxytocin was added to induce contraction. After the sample was allowed to stand for at least 30 minutes to confirm stable rhythmic contraction for frequency and amplitude, the test, control, or positive control substance solution was added cumulatively at intervals of 5 minutes. After the treatment was completed, 1×10^−5 mol/L of forskolin was added to obtain maximal relaxation. The contractile force of the uterine sample was delivered via a force displacement transducer to a strain pressure amplifier and recorded on a Rectigraph.
(§2) Considering the sum of the uterine contraction for 5 minutes before treatment as 100%, the response rate to each concentration of the test, control, or positive control substance solution was calculated from the sum of uterine contraction after treatment for both PG F2α and oxytocin induced contraction. Then, the response rates obtained were used to prepare a concentration-response curve for each sample. The maximum relaxation obtained by adding forskolin was considered as a baseline. Variable points (peaks) with amplitude (tension) of […] or lower were excluded from analysis. Samples showing any of the following events were not used for the study or excluded from analysis.
(§3) Microsoft® Excel 2000 (Microsoft Corp.) was used to sum up and calculate data and prepare tables and figures. Using a concentration-response curve prepared for each sample (X axis: log value of the concentration of the substance added, Y axis: response rate), a negative log value (pEC50) of the concentration that inhibited the uterine contraction by 50% (EC50) was calculated from a straight line connecting the 2 concentrations just above and below 50%, and then converted to EC50 (unit: mol/L).

[2] = system: uterine muscle isolated from pregnant rats; test: Oxytocin-induced contraction of uterine muscle isolated from pregnant rats; type: cell-based, rat; conditions: contraction induced with 1 mU/mL of oxytocin, mean ± standard error of 10 samples
Procedure: as §1, §2, §3

[3] = system: uterine muscle isolated from pregnant rats; test: Spontaneous contractions of uterine muscle isolated from pregnant rats (organ bath); type: cell-based; conditions: pregnant rat uterine muscle, mean ± standard error, 10 samples
Procedure: The experimental operation of this study was as reported by T. Kawarabayashi et al.^1 After each SD-strain rat on Day 21 of pregnancy were exsanguinated to death, the uterus was isolated to prepare up to 8 myometrial strips (about 4 mm×10 mm) in the direction of the longitudinal muscle, with the adhesion to the placenta being avoided.
Each myometrial strip was suspended in an organ bath containing 10 mL of a Locke-Ringer solution at 37° C. (aerated with 95% O2+5% CO2 gas) with a load of about 1.0 g. After the amplitude and frequency of the muscular spontaneous contractions became stable, distilled water was added. Five minutes later, the test, control, or positive control substance was added cumulatively with intervals of 5 minutes. The myometrial contractile force was delivered to a strain pressure amplifier through a force displacement transducer and recorded on a Rectigraph.
Considering the sum of the uterine contraction during 5 minutes after the addition of distilled water as 100%, the response rate to each concentration of the test, control, or positive control substance was calculated from the sum of the uterine contraction after each was added. Variable points (peaks) with amplitude (tension) of 0.2 g or lower were excluded from analysis. Samples showing any of the following events were not used for the study or excluded from analysis.
Microsoft® Excel 2000 (Microsoft Corp.) was used to sum up and analyze data and prepare tables and figures. Using a concentration-response curve obtained for each sample (X axis: log value of the concentration of the drug added, Y axis: response rate), a negative log value (pD2) of the concentration that inhibited the uterine contraction by 50% (EC50) was calculated from a straight line that connects the 2 concentrations above and below 50%, and converted to EC50.

[4] = system: uterine activity of anesthetized pregnant rats; test: Uterine motility of anesthetized pregnant rats (balloon method); type: in vivo, rat; conditions: uterine motility, intravenous cumulative dosing every 15 minutes, urethane-anesthetized pregnant rats
Procedure: Rats were anesthetized with urethane, and experiments were conducted based on balloon method. Uterine activity and mean blood pressure of dam were led to a pressure amplifier via a pressure transducer. As for heart rate, pulse waves were led to tachometer. Recti-graphs were used for recording. The test substance, control substance, or positive control substance was administered intravenously and cumulatively every 15 minutes, while doses were increased gradually.

[5] = system: uterine muscles isolated from pregnant rabbits; test: Oxytocin-induced contractions of isolated uterine muscles of pregnant rabbits (organ bath); type: cell-based, rabbit; conditions: oxytocin (1 mU/mL)-induced contractions, pregnant rabbit uterine muscles; for EC50: Oryctolagus cuniculus, read-out: pD2 values (converted)
Procedure: (§4) Uterine muscles of pregnant rabbits were isolated, and experiments were conducted based on organ-bath method. After specimens of uterine muscles were suspended and oxytocin (1 mU/mL)-induced contractions was stabilized, the test substance, control substance or positive control substance was administered every 10 min, while doses were increased gradually. Efficacy of drugs was evaluated by comparing the sum of uterine contraction for 10 min before and after administration of drugs, defining the former as 100%.

[6] = system: uterine muscles isolated from pregnant rabbits; test: Spontaneous contractions of isolated uterine muscles of pregnant rabbits (organ bath); type: cell-based, rabbit; conditions: spontaneous contractions, pregnant rabbit uterine muscles; for EC50: Oryctolagus cuniculus, read-out: pD2 values (converted)
Procedure: as §4, with “spontaneous” for “oxytocin (1 mU/mL)-induced”

[7] = system: uterine muscle isolated from pregnant rats; test: Interaction of MN-221 and β-adrenoceptor antagonists on spontaneous contraction of uterine muscle isolated from pregnant rats (Schild regression); type: cell-based, rat
Procedure: The experimental operation of this study was as reported by T. Kawarabayashi et al.^4. After each SD-strain rat on Day 21 of pregnancy was exsanguinated to death, the uterus was isolated to prepare 8 myometrial samples (about 4 mm×10 mm) in the direction of the longitudinal muscle, with the adhesion to the placenta being avoided. Each myometrial sample was suspended with a load of about 1.0 g in an organ bath containing 10 mL of the Locke-Ringer solution at 37° C. […] After the suspended samples became stable for the amplitude and frequency of spontaneous contraction, each antagonist or distilled water was added to the bath to pretreat them for about 15 minutes. […] The contractile force of each sample was outputted through a force displacement transducer to a strain pressure amplifier and recorded with a rectigraph.
Any variable point (peak) with amplitude (tension) of 0.2 g or lower was excluded from analysis. Samples meeting any of the following criteria were rejected or removed from analysis.
Microsoft® Excel 2000 (Microsoft Corp.) was used for summing up or calculating data and preparing figures and tables. […] This EC50 value was used to calculate the concentration ratio (CR) of EC50 when an antagonist was added (for each sample) to that when no antagonist was added (mean value of the whole control group) and the logarithmic value of CR-1 (log [CR-1]).
Then, the added concentration of the antagonist was plotted on the X axis (logarithmic value) and log(CR-1) on the Y axis (Schild plot) to calculate the value of the X-axis intercept (pA2) and slope of the line using linear approximation (Schild regression^5). The slope was statistically compared with a slope of 1 (paired t-test; a probability level of less than 5% was considered significant). […] The mean and standard error were calculated for each data point obtained and indicated to two decimal places (or in 3 significant digit).

[8] = Rattus norvegicus, read-out: EC50
[9] = Rattus norvegicus, read-out: pEC50 (converted)

Compound: Cn1cc(C(F)(F)F)nc1-c1ccc(OCC(O)CNCCOc2ccc(O)c(C(N)=O)c2)cc1 (stereo not shown) [CGP 20712A, reference compound]
antagonistic effect on the effect of MN-221 ([7]; at a concentration of up to 1×10^−8 mol/L): no evident antagonistic effect

Compound: CC(C)(C)NC[C@H](O)c1ccc(O)cc1Cl.O=C(O)C(O)C(O)C(=O)O [HSR-81, meluadrine tartrate]
ED30 values [4]: 0.56 µg/kg/min
pD2 values [5]: 8.12 ± 0.21
pD2 values [6]: 8.21 ± 0.26

Compound: CCc1ccccc1OC[C@@H](O)CN[C@H]1CCCc2ccccc21 [SR 59230A, reference compound]
antagonistic effect on the effect of MN-221 ([7]; at a concentration of up to 3×10^−8 mol/L): no evident antagonistic effect

Further lines, with some results ahead:

EC50 [1, 8]: 3430 ± 720 nM
EC50 [1, 9]: 2630 nM
EC50 [2, 8]: 133 ± 16.8 nM
EC50 [2, 9]: 120 nM
EC50 ([3]; read-out: EC50): 39.8 ± 13.3 nM
EC50 ([3]; read-out: pD2 (converted)): 25.7 nM
EC50 [5]: 77.6 nM
EC50 [6]: 135 nM
Compound: CC(NCCc1ccc(O)cc1)C(O)c1ccc(O)cc1 (racemic) [Ritodrine hydrochloride, (±)-erythro-1-(p-hydroxyphenyl)-2-[2-(p-hydroxyphenyl)ethylamino]-1-propanol hydrochloride]
ED30 values [4]: 51.45 µg/kg/min

EC50 [5]: 40.7 nM
EC50 [6]: 89.1 nM
Compound: CC(C)(C)NCC(O)c1cc(O)cc(O)c1 (stereo not shown) [Terbutaline sulfate, terbutaline sulfate]
ED30 values [4]: 0.72 µg/kg/min

pEC50 [1]: 8.32±0.05
EC50 ([1]; read-out: EC50): 5.1 ± 0.633 nM
pEC50 [2]: 9.27±0.03
EC50 ([2]; read-out: EC50): 0.556 ± 0.0412 nM
EC50 ([3]; read-out: EC50): 0.42 ± 0.1 nM
Compound: isoproterenol bitartrate
pD2 [3]: 9.52±0.13
pD2 values [5]: 8.53 ± 0.21
pD2 values [6]: 8.69 ± 0.17
